pIC50, pKi: −log10 of the molar value. Where only a bound is given, the exact number is not on record here.

For test [1], the target named is T1, Phosphotyrosine protein phosphatase (Mycobacterium tuberculosis, UniProt A0A045ISB3).
T1 sequence (A0A045ISB3 whole entry): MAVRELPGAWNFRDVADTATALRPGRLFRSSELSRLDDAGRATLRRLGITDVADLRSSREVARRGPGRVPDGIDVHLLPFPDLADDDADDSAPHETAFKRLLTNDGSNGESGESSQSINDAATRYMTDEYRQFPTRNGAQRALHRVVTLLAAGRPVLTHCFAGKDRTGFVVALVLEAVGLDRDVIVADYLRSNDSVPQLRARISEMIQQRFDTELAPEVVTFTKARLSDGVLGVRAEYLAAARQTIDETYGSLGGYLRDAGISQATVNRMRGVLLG
Briefly: Inhibition of Mycobacterium tuberculosis PtpB using p-nitrophenyl phosphate as substrate preincubated for 10 mins followed by substrate addition measured every minute for 10 mins by UV-VIS spectrophotometric analysis.

Test [2] concerns the target T2, Low molecular weight protein-tyrosine phosphatase A (Mycobacterium tuberculosis, UniProt P9WIA1).
T2 sequence (P9WIA1 whole entry): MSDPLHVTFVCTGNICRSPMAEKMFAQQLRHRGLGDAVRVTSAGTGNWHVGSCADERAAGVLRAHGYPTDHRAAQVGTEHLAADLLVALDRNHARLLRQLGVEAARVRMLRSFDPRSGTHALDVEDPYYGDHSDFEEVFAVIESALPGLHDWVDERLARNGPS
Briefly: Inhibition of Mycobacterium tuberculosis PtpA using p-nitrophenyl phosphate as substrate preincubated for 10 mins followed by substrate addition measured every minute for 10 mins by UV-VIS spectrophotometric analysis.

The target in test [3] is T3, Tyrosine-protein phosphatase non-receptor type 1 (Homo sapiens, UniProt P18031).
T3 sequence (P18031 whole entry): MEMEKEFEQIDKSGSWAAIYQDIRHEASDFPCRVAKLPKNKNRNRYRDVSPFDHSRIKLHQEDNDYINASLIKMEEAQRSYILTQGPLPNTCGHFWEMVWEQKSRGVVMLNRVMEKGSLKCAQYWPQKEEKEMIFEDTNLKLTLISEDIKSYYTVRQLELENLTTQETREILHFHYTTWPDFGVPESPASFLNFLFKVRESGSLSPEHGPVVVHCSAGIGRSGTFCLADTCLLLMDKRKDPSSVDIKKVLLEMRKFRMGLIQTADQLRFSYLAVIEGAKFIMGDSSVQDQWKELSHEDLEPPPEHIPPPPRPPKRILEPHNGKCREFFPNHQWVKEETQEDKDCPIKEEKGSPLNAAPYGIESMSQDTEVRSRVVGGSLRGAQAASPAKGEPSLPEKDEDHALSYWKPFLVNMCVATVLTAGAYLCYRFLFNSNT
The test can be described thus: Inhibition of human PTP1B using p-nitrophenyl phosphate as substrate preincubated for 10 mins followed by substrate addition measured every minute for 10 mins by UV-VIS spectrophotometric analysis.

The target of test [4] is T4, Tyrosine-protein phosphatase non-receptor type 22 (Homo sapiens, UniProt Q9Y2R2).
T4 sequence (Q9Y2R2 whole entry): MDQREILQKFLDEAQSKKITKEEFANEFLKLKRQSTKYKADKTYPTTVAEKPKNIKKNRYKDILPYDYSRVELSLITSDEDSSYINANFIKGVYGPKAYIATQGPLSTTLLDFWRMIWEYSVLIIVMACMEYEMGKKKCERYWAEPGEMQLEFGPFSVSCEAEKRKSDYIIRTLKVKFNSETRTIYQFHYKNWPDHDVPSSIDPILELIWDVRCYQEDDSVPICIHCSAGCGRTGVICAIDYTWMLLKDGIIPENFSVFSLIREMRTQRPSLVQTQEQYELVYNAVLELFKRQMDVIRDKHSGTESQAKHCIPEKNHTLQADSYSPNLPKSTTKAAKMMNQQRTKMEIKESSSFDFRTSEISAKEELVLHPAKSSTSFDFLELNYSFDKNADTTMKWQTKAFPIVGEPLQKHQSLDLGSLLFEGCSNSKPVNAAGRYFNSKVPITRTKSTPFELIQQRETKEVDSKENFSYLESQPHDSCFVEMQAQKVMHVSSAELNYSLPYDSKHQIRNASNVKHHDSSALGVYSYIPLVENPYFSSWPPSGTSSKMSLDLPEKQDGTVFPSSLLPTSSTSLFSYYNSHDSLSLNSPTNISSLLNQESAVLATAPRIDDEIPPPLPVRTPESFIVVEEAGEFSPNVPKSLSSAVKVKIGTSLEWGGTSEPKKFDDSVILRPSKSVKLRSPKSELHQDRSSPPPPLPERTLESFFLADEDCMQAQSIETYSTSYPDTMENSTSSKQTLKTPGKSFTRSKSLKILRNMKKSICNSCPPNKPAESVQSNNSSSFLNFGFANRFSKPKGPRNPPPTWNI
The test can be described thus: Inhibition of LYP (unknown origin) using p-nitrophenyl phosphate as substrate preincubated for 10 mins followed by substrate addition measured every minute for 10 mins by UV-VIS spectrophotometric analysis.

In test [5] the target is T5, Tyrosine-protein phosphatase non-receptor type 12 (Homo sapiens, UniProt Q05209).
T5 sequence (Q05209 whole entry): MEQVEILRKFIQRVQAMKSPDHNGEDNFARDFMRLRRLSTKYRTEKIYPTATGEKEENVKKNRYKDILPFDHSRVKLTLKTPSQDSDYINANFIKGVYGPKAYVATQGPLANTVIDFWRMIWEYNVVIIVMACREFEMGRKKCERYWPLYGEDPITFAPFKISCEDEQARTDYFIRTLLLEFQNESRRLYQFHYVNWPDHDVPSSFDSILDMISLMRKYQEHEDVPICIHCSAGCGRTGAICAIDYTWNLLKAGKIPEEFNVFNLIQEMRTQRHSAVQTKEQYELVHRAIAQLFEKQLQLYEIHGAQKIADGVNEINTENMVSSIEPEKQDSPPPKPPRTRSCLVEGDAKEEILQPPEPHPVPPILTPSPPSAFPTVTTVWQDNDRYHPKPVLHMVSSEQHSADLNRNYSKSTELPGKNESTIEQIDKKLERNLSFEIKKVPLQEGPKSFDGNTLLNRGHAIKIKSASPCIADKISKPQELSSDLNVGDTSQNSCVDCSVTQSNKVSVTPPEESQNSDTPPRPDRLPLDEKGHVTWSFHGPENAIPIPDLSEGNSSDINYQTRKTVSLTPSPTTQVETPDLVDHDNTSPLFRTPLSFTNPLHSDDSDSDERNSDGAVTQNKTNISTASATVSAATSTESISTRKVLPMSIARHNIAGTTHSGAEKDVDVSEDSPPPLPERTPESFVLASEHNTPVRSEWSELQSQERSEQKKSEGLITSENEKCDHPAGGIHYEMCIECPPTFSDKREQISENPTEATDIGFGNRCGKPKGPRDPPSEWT
Briefly: Inhibition of PTP-PEST (unknown origin) using p-nitrophenyl phosphate as substrate preincubated for 10 mins followed by substrate addition measured every minute for 10 mins by UV-VIS spectrophotometric analysis.

For orientation: pIC50 means the IC50 on a negative log10 scale, so that one unit is a factor of ten. Higher therefore signals a small IC50. Usually pKi stands for the negative decadic logarithm of the Ki, by convention in mol/L. In test [1], `CC(C)=CCc1c(O)ccc(C(=O)[C@H]2[C@@H](c3c(O)cc(/C=C/c4ccc(O)cc4O)cc3O)C=C(C)C[C@@H]2c2ccc(O)cc2O)c1O` had a negative-log IC50 (pIC50) of 5.72 and a negative-log Ki (pKi) of 5.80.

In the case of `CC(C)=CCc1c(O)cc2c(c1O)C(=O)C[C@@H](c1cc3c(cc1O)OC(C)(C)C=C3)O2` [CUDRAFLAVANONE A], the negative-log IC50 (pIC50) was 5.29 in test [1]; 5.56 in test [2]; 5.37 in test [3]; 5.02 in test [4]; 4.73 in test [5].

Consider `CC(C)=CCc1c(-c2ccc(O)cc2O)oc2c3c(cc(O)c2c1=O)OC(C)(C)C=C3` [MORUSIN], for which the pIC50 was 5.28 in test [1]; 5.33 in test [2]; 4.99 in test [3]; 4.82 in test [4]; < 4.00 in test [5].

On to `CC1=C[C@@H](c2c(O)ccc([C@@H]3CC(=O)c4c(O)cc(O)cc4O3)c2O)[C@H](C(=O)c2ccc(O)cc2O)[C@@H](c2ccc(O)cc2O)C1`, for which the pIC50 in test [1] was 5.33; in test [2], 4.86; in test [3], 5.10; in test [4], 4.92; in test [5], 4.73.

As to `O=c1cc(-c2ccc(O)cc2O)oc2cc(O)cc(O)c12` [NORARTOCARPETIN], the pIC50 in test [1] is 5.92; in test [2], 4.92; in test [3], 5.29; in test [4] it was 4.52; in test [5] it was 4.68.

On to `CC(C)=CCc1c(O)ccc(C(=O)[C@H]2[C@@H](c3c(O)cc(-c4cc5ccc(O)cc5o4)cc3O)C=C(C)C[C@@H]2c2ccc(O)cc2O)c1O` [CHALCOMORACIN], for which the pIC50 in test [1] was 5.84; in test [2], 5.61; in test [3], 5.71; in test [4], 5.14; in test [5], 5.07.

For the compound `Oc1cc(O)cc(/C=C/c2ccc(O)cc2O)c1` [OXYRESVERATROL], the pIC50 in test [2] was 4.17; in test [3], 4.57; in test [4], 4.50; in test [5], < 4.00.
